Data from ChEMBL document CHEMBL3745655, “Novel carbocyclic nucleoside analogs suppress glomerular mesangial cells proliferation and matrix protein accumulation through ROS-dependent mechanism in the diabetic milieu. II. Acylhydrazone-functionalized pyrimidines” (Bioorg Med Chem Lett, 2016).
Active and inactive are the calls of the source. The rule behind the calls is not given here.

Tests used:
Assay type in all cases: functional
[1] = species on record: Rattus norvegicus; test: Protection against high glucose-induced increase of cell proliferation in rat glomerular mesangial cells after 48 hrs by MTT assay
[2] = Antidiabetic activity in 24 hrs serum-deprived rat glomerular mesangial cells assessed as reduction of high glucose-induced fibronectin and beta-actin expression ratio at 1 uM after 48 hrs by Western blot analysis relative to control
[3] = Antidiabetic activity in 24 hrs serum-deprived rat glomerular mesangial cells assessed as reduction of high glucose-induced fibronectin and beta-actin expression ratio at 5 uM after 48 hrs by Western blot analysis relative to control
[4] = Antidiabetic activity in 24 hrs serum-deprived rat glomerular mesangial cells assessed as reduction of high glucose-induced fibronectin and beta-actin expression ratio at 0.5 uM after 48 hrs by Western blot analysis relative to control
[5] = Antidiabetic activity in 24 hrs serum-deprived rat glomerular mesangial cells assessed as reduction of high glucose-induced fibronectin and beta-actin expression ratio at 0.25 uM after 48 hrs by Western blot analysis relative to control
[6] = Antidiabetic activity in 24 hrs serum-deprived rat glomerular mesangial cells assessed as reduction of high glucose-induced ROS production at 1 uM after 48 hrs by DHE staining
[7] = Antidiabetic activity in 24 hrs serum-deprived rat glomerular mesangial cells assessed as reduction of high glucose-induced ROS production at 5 uM after 48 hrs by DHE staining

CCOC(=O)[C@H]1C/C(=N\NC(=O)CCn2ccc(O)nc2=O)C[C@H]1C(=O)OCC (racemic)
Activity [1]: inactive
Ratio [2]: 93.7
Ratio [3]: 76.5
Ratio [4]: 97.5

O=C(CCn1ccc(O)nc1=O)N/N=C1\C[C@H](C(=O)O)[C@H](C(=O)O)C1 (racemic)
Ratio [2]: 96.7
Ratio [3]: 117
Ratio [5]: 75.1
Ratio [4]: 80

CCOC(=O)C1CCCC1=O (racemic)
Ratio [2]: 88.3
Ratio [3]: 137
Ratio [5]: 109
Ratio [4]: 110

Cc1cn(CCC(=O)N/N=C2\C[C@H](C(=O)O)[C@H](C(=O)O)C2)c(=O)nc1O (racemic)
Activity [6]: Active
Activity [1]: Active
Ratio [2]: 72
Ratio [3]: 70.7
Ratio [4]: 80.1

O=C(CCn1ccc(O)nc1=O)NN=C1C[C@@H](C(=O)O)[C@H](C(=O)O)C1 (racemic)
Ratio [2]: 115
Ratio [3]: 96.9
Ratio [5]: 132
Ratio [4]: 116

CCOC(=O)[C@H]1C/C(=N\NC(=O)CCn2ccc(N)nc2=O)C[C@H]1C(=O)OCC (racemic)
Ratio [2]: 91
Ratio [3]: 125
Ratio [4]: 95.1

CCOC(=O)[C@@H]1CC(=NNC(=O)CCn2cc(C)c(O)nc2=O)C[C@H]1C(=O)OCC (racemic)
Ratio [2]: 90.8
Ratio [3]: 87.6
Ratio [4]: 94.2

O=C(CCn1ccc(O)nc1=O)NN=C1CCCC1
Activity [6]: Active
Activity [1]: Active
Ratio [2]: 84.8
Ratio [3]: 64.3
Ratio [4]: 100

CCOC(=O)[C@@H]1CC(=O)C[C@H]1C(=O)OCC (racemic)
Ratio [2]: 86.3
Ratio [3]: 79.7
Ratio [5]: 82.4
Ratio [4]: 90.2

CCOC(=O)[C@@H]1CC(=NNC(=O)CCn2ccc(N)nc2=O)C[C@H]1C(=O)OCC (racemic)
Activity [1]: inactive
Ratio [2]: 96.1
Ratio [3]: 80.6
Ratio [4]: 98.2

Cc1cn(CCC(=O)NN=C2CCCC2)c(=O)nc1O
Ratio [2]: 126
Ratio [3]: 127
Ratio [4]: 118

NNC(=O)CCn1ccc(O)nc1=O
Activity [1]: Active
Ratio [2]: 80.5
Ratio [3]: 85.4
Activity [7]: Active
Ratio [4]: 101

Cc1cn(CCC(=O)NN)c(=O)nc1O
Ratio [2]: 94
Ratio [3]: 102
Ratio [4]: 89.2

CCOC(=O)[C@H]1C/C(=N\NC(=O)CCn2cc(C)c(O)nc2=O)C[C@H]1C(=O)OCC (racemic)
Ratio [2]: 97.9
Ratio [3]: 81.1
Ratio [4]: 91.9

NNC(=O)CCn1ccc(N)nc1=O
Ratio [2]: 81.6
Ratio [3]: 80.8
Ratio [4]: 76.5

Cc1cn(CCC(=O)NN=C2C[C@@H](C(=O)O)[C@H](C(=O)O)C2)c(=O)nc1O (racemic)
Activity [6]: Active
Activity [1]: Active
Ratio [2]: 64.6
Ratio [3]: 63.1
Ratio [4]: 78.4

O=C1CCCC1
Ratio [2]: 114
Ratio [3]: 129
Ratio [5]: 82.8
Ratio [4]: 101

Nc1ccn(CCC(=O)N/N=C2\C[C@H](C(=O)O)[C@H](C(=O)O)C2)c(=O)n1 (racemic)
Ratio [2]: 142
Ratio [3]: 113
Ratio [5]: 136
Ratio [4]: 143

Nc1ccn(CCC(=O)NN=C2C[C@@H](C(=O)O)[C@H](C(=O)O)C2)c(=O)n1 (racemic)
Ratio [2]: 128
Ratio [3]: 107
Ratio [5]: 123
Ratio [4]: 126

CCOC(=O)[C@H]1CC(=O)C[C@H]1C(=O)OCC
Ratio [2]: 88.9
Ratio [3]: 84.2
Ratio [5]: 81.8
Ratio [4]: 79.8

CCOC(=O)[C@@H]1CC(=NNC(=O)CCn2ccc(O)nc2=O)C[C@H]1C(=O)OCC (racemic)
Activity [6]: Active
Activity [1]: Active
Ratio [2]: 132
Ratio [3]: 94
Ratio [4]: 145

Nc1ccn(CCC(=O)NN=C2CCCC2)c(=O)n1
Ratio [2]: 213
Ratio [3]: 275
Ratio [4]: 218

CCOC(=O)C1CCC/C1=N\NC(=O)CCn1ccc(N)nc1=O (racemic)
Ratio [2]: 119
Ratio [3]: 102
Ratio [4]: 111

CCOC(=O)C1CCC/C1=N\NC(=O)CCn1ccc(O)nc1=O (racemic)
Ratio [2]: 126
Ratio [3]: 106
Ratio [4]: 127

O=C1C[C@@H](C(=O)O)[C@H](C(=O)O)C1 (racemic)
Ratio [2]: 149
Ratio [3]: 124
Ratio [5]: 135
Ratio [4]: 143

O=C1C[C@H](C(=O)O)[C@H](C(=O)O)C1
Ratio [2]: 145
Ratio [3]: 121
Ratio [5]: 129
Ratio [4]: 149

CCOC(=O)C1CCC/C1=N\NC(=O)CCn1cc(C)c(O)nc1=O (racemic)
Activity [1]: inactive
Ratio [2]: 96.5
Ratio [3]: 91.6
Ratio [4]: 88.8
